Values of other authors in article PMC9851200, “Multiparameter phenotypic screening for endogenous TFEB and TFE3 translocation identifies novel chemical series modulating lysosome function” (Autophagy, 2022).

Experiments:
Parameters in all cases: method as in original PKIS2 published data
[1] = biological target: kinases (KINOMEscan panel) (Homo sapiens, UniProt P35590); conditions: TIE1; Published KINOMEscan; ref original PKIS2 published data; cited from earlier work
[2] = biological target: T1, kinases (KINOMEscan panel) (Homo sapiens, UniProt P29320); conditions: kinase EPHA3; Published KINOMEscan; ref original PKIS2 published data; cited from earlier work
T1 sequence (P29320 21-983): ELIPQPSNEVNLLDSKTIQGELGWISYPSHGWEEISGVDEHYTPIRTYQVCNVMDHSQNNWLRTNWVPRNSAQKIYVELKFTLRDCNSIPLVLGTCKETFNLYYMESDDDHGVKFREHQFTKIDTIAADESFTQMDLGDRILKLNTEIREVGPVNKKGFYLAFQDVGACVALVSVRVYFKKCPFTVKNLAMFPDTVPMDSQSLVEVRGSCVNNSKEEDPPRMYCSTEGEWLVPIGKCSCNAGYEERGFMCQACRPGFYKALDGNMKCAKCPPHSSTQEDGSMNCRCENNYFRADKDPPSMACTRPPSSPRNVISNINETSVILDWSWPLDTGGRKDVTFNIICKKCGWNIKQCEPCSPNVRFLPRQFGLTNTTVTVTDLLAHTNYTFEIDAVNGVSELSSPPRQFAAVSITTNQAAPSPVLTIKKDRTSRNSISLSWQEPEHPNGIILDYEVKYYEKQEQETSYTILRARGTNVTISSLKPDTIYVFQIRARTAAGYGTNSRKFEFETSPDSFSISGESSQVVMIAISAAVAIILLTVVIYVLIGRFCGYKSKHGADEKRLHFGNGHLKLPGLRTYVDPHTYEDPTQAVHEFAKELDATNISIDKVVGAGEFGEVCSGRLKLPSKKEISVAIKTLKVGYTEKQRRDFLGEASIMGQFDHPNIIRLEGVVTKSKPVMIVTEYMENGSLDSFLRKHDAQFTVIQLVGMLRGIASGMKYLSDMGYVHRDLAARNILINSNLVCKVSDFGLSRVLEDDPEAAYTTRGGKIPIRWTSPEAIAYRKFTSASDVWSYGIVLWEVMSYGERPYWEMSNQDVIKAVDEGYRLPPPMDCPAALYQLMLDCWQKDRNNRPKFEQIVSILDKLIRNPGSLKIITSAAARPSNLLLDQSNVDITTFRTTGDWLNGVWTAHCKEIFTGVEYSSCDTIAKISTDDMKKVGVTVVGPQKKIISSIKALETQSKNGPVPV

[3] = biological target: T2, kinases (KINOMEscan panel) (Homo sapiens, UniProt Q59H18); conditions: kinase TNNI3K; Published KINOMEscan; ref original PKIS2 published data; cited from earlier work
T2 sequence (Q59H18 1-835): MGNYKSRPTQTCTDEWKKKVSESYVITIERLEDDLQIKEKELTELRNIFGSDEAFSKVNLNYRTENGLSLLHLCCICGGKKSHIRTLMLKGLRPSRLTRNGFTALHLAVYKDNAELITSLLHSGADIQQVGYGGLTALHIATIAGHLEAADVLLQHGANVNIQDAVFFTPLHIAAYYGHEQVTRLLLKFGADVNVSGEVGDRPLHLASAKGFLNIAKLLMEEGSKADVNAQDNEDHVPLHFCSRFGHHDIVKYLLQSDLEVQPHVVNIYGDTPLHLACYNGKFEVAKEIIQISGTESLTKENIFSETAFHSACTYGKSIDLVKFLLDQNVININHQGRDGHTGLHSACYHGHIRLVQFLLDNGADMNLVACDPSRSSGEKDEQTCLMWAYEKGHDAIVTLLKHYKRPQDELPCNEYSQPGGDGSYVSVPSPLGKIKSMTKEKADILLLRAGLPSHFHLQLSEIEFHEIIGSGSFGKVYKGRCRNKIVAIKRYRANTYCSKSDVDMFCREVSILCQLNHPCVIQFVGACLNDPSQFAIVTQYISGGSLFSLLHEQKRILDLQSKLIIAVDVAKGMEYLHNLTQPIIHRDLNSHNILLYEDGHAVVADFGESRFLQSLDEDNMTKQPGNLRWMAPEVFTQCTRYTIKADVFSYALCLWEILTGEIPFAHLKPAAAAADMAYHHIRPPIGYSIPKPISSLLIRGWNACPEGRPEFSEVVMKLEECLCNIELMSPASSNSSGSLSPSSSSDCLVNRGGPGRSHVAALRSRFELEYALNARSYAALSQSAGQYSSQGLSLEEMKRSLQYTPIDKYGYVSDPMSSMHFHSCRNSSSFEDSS

[4] = biological target: kinases (KINOMEscan panel) (Homo sapiens, UniProt Q52WX2); conditions: SBK1; Published KINOMEscan; ref original PKIS2 published data; cited from earlier work
Sequence of kinases (KINOMEscan panel) (Homo sapiens, UniProt Q52WX2) (Q52WX2 whole entry): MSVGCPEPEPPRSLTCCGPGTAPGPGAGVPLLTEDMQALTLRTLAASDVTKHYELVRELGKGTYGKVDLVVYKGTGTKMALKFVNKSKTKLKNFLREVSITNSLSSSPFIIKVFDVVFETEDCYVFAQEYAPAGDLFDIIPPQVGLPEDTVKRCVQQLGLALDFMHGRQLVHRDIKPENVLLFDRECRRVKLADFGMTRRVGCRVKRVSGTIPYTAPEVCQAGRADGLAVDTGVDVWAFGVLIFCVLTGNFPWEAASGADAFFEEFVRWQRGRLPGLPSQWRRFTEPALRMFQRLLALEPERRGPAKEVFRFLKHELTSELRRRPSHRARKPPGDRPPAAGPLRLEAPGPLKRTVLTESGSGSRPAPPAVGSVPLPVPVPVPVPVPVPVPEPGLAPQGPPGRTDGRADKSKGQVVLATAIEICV

[5] = biological target: kinases (KINOMEscan panel) (Homo sapiens, UniProt P16591); conditions: FER; Published KINOMEscan; ref original PKIS2 published data; cited from earlier work
Sequence of kinases (KINOMEscan panel) (Homo sapiens, UniProt P16591) (P16591 whole entry): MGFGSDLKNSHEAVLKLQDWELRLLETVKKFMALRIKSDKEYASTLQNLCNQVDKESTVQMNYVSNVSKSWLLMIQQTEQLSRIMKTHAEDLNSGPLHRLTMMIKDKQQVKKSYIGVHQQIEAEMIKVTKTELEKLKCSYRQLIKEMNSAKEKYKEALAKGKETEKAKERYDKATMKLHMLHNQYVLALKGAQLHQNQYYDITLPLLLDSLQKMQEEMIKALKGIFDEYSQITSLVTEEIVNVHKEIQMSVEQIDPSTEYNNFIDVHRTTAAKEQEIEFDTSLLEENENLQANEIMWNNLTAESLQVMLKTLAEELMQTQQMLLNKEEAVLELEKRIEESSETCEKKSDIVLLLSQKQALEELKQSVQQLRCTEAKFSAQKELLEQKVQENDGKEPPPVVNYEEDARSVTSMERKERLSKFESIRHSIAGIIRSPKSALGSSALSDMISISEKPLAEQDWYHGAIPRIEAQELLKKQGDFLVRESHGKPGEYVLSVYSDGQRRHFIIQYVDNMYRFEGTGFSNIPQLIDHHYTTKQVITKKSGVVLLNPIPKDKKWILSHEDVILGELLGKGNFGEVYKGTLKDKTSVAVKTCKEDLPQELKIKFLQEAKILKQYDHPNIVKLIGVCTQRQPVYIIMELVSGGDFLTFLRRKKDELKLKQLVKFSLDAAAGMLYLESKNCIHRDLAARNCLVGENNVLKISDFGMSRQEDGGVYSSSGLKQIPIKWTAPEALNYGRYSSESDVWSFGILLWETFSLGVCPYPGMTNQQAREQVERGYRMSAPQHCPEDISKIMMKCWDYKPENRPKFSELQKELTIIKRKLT

[6] = biological target: kinases (KINOMEscan panel) (Homo sapiens, UniProt Q13557); conditions: kinase CAMK2D; Published KINOMEscan; ref original PKIS2 published data; cited from earlier work
Sequence of kinases (KINOMEscan panel) (Homo sapiens, UniProt Q13557) (Q13557 whole entry): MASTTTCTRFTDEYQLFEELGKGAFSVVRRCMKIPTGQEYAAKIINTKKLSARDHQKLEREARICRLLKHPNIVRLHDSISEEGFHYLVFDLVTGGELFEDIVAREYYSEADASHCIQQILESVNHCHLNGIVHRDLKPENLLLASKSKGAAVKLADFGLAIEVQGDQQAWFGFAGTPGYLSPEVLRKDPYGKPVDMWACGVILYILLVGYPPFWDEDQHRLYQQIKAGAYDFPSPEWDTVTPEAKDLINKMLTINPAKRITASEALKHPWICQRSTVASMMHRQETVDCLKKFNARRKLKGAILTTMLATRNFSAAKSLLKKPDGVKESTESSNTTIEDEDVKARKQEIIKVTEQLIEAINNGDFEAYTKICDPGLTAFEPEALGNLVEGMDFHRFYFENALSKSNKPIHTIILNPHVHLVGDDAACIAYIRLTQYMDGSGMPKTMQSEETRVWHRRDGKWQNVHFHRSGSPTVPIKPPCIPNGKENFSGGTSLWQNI

[7] = biological target: kinases (KINOMEscan panel) (Homo sapiens, UniProt Q9BYT3); conditions: kinase STK33; Published KINOMEscan; ref original PKIS2 published data; cited from earlier work
Sequence of kinases (KINOMEscan panel) (Homo sapiens, UniProt Q9BYT3) (Q9BYT3 whole entry): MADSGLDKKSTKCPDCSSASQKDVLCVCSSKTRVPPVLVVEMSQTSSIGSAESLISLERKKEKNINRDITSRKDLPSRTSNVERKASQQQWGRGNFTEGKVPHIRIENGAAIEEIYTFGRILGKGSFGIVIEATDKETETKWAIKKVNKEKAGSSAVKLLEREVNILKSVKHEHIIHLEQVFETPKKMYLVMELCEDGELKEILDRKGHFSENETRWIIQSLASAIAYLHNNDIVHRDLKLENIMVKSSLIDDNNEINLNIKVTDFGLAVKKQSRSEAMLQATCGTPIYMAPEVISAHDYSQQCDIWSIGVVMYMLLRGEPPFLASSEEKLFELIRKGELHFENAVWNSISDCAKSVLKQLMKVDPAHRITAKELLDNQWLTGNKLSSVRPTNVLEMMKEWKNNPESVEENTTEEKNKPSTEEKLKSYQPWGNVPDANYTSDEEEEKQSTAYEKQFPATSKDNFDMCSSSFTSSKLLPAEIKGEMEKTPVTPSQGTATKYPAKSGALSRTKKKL

Sequence of kinases (KINOMEscan panel) (Homo sapiens, UniProt P35590) (P35590 22-1138): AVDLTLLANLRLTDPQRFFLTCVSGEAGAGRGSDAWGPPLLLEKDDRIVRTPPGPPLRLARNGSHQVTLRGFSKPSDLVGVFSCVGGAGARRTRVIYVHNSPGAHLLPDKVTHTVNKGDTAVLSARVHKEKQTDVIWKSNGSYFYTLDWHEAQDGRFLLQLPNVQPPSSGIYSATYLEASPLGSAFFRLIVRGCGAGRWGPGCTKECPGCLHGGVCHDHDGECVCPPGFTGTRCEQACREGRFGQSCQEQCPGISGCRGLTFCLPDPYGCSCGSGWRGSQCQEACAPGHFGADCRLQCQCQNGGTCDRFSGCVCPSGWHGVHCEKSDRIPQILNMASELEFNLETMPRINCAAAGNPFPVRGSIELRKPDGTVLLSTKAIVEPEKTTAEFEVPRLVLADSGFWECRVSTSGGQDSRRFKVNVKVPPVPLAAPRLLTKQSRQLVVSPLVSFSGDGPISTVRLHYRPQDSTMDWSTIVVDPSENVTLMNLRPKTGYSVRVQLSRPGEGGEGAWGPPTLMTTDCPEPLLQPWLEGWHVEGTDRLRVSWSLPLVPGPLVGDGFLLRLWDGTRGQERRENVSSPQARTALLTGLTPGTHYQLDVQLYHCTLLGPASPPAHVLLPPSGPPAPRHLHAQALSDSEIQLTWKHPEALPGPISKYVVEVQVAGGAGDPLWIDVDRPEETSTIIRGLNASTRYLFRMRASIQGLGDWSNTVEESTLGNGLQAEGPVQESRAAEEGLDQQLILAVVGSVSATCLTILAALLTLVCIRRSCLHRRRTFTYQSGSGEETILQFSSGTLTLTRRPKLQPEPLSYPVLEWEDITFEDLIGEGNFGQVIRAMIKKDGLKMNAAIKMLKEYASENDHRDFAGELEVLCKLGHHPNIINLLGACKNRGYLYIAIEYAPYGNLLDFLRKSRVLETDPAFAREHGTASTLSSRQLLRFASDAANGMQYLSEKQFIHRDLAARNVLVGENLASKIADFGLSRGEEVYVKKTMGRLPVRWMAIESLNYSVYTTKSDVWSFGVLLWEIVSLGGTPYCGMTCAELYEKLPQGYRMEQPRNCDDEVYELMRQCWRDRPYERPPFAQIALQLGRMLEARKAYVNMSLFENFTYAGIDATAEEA

Cc1cccc(-c2nc(Nc3ccncc3)c3ccccc3n2)n1 [NK215]
KINOMEscan TIE1 [1]: 20 | KINOMEscan EPHA3 [2]: 0 | KINOMEscan TNNI3K [3]: 20 | KINOMEscan SBK1 [4]: 0 | KINOMEscan FER [5]: 0 | KINOMEscan CAMK2D [6]: 7 | KINOMEscan STK33 [7]: 2
